The text below walks through data of paper PMC12127091, “Targeting Cancer With Bifunctional Peptides: Mechanism of Cell Entry and Inciting Cell Death” (Cancer Science, 2025).

Where a SMILES comes first, the peptide text is derived from it. [ ]: non-standard residue; d: D form.

The conditions of data set [1]: attributed to high polarity; cited from earlier work. The text has this:
(§1) Nonetheless, introducing this peptide to human sarcoma and melanoma cell lines at 1% of their inhibitory concentrations (IC50) was described to induce mitochondrial swelling p ...

Data set [2] deals with human erythrocytes. Particulars: cited from earlier work.
Text: as §1

Data set [3] has as its system SK‐BR‐3. The data set can be described thus: Plasma membrane damage (LDH leakage, Annexin V binding). The format is cell-based. The conditions noted are these: SK‐BR‐3, 8 μM peptides, Figure 5a,b. The procedure: 7 × 10^3–10^4 cells were seeded in a 96‐well plate and left to recover overnight. The cells were treated with 8 μM of peptides and were harvested at two time points. The treated cells were harvested, and the supernatants were collected.
The cells were stained with FITC Annexin V and 7‐AAD (Biolegend) in Annexin V binding buffer (Becton, Dickinson and Company). The binding of Annexin V was checked using flow cytometry.
25 μL of the supernatant was used to check the presence of active lactate dehydrogenase using the CyQUANT LDH Cytotoxicity Assay Kit (Thermo Fisher Scientific) according to the manufacturer's instructions. The absorbance was measured at 490 and 680 nm.
(LDH in the medium is a marker of cell lysis.)

Data set [4] relates to Caki‐2, SK‐BR‐3, A‐704 and CCD18‐Co. The data set is described as follows: FITC‐peptide uptake by flow cytometry. The format is cell-based. The conditions noted are these: Caki‐2 and SK‐BR‐3, 5 μM FITC‐peptide, 1 h, Figure 2a. As for the experimental part: 7 × 10^3–10^4 cells were seeded in a 96‐well plate. On the next day, the cells were incubated with 5 μM of FITC‐conjugated peptides. The cells were harvested at different time points and measured for their fluorescence intensity using BD FACSCanto II (Becton, Dickinson and Company, Franklin Lanes, NJ, USA). Dead cells were excluded by staining the cells with 7‐AAD dye (Biolegend, San Diego, CA, USA).

On to `CC(C)C[C@H](NC(=O)[C@H](CCCCN)NC(=O)[C@H](C)NC(=O)[C@H](CC(C)C)NC(=O)[C@H](CCCCN)NC(=O)[C@H](CCCCN)NC(=O)[C@H](C)NC(=O)[C@H](CC(C)C)NC(=O)[C@H](CCCCN)NC(=O)[C@H](C)NC(=O)[C@H](CC(C)C)NC(=O)[C@@H](N)CCCCN)C(=O)N[C@@H](C)C(=O)N[C@@H](CCCCN)C(=O)O` [Tox], for which the “ability to cross the plasma membrane” value in data set [1] was “hardly able to cross the plasma membrane”. For the same molecule, the “cytotoxicity towards human erythrocytes” value in data set [2] is reported as “considerably lower cytotoxicity”.
On to `CC(C)C[C@H](N)C(=O)N[C@H](C(=O)N[C@H](C(=O)N[C@@H](CO)C(=O)N1CCC[C@H]1C(=O)N[C@@H](Cc1c[nH]c2ccccc12)C(=O)N[C@@H](Cc1ccc(O)cc1)C(=O)NCC(=O)NCC(=O)N[C@H](CCCCN)C(=O)N[C@H](CC(C)C)C(=O)N[C@H](C)C(=O)N[C@H](CCCCN)C(=O)N[C@H](CC(C)C)C(=O)N[C@H](C)C(=O)N[C@H](CCCCN)C(=O)N[C@H](CCCCN)C(=O)N[C@H](CC(C)C)C(=O)N[C@H](C)C(=O)N[C@H](CCCCN)C(=O)N[C@H](CC(C)C)C(=O)N[C@H](C)C(=O)N[C@H](CCCCN)C(=O)O)C(C)C)[C@@H](C)O` [TP‐D‐Tox] (H-LTVSPWYGG[dK][dL][dA][dK][dL][dA][dK][dK][dL][dA][dK][dL][dA][dK]-OH), for which the “time after peptide addition at which major plasma membrane damage was detected” value in data set [3] is no more than 3 h.
Consider `CC(C)C[C@H](NC(=O)[C@H](Cc1c[nH]c2ccccc12)NC(=O)[C@@H]1CCCN1C(=O)[C@H](CO)NC(=O)[C@H](Cc1ccc(O)cc1)NC(=O)[C@@H](N)C(C)C)C(=O)N[C@H](C(=O)NCC(=O)NCC(=O)N[C@H](CCCCN)C(=O)N[C@H](CC(C)C)C(=O)N[C@H](C)C(=O)N[C@H](CCCCN)C(=O)N[C@H](CC(C)C)C(=O)N[C@H](C)C(=O)N[C@H](CCCCN)C(=O)N[C@H](CCCCN)C(=O)N[C@H](CC(C)C)C(=O)N[C@H](C)C(=O)N[C@H](CCCCN)C(=O)N[C@H](CC(C)C)C(=O)N[C@H](C)C(=O)N[C@H](CCCCN)C(=O)O)[C@@H](C)O` [TP2‐D‐Tox] (H-VYSPWLTGG[dK][dL][dA][dK][dL][dA][dK][dK][dL][dA][dK][dL][dA][dK]-OH), for which the “internalization (fluorescence intensity) of FITC‐peptides” value in data set [4] is reported as “higher cell penetration”. In data set [3], the “time after peptide addition at which major plasma membrane damage was detected” value is no more than 3 h.
